Measurements from patent publication US7482032B2, “Carotenoid preparation” (I.B.R. Israeli Biotechnology Research, Ltd., priority 1998, dated 2009).

What was measured:
[1] = UV absorbance spectra (spectrophotometric analysis); assay type: physicochemical; details: extract from Dunaliella sp.
Description: Absorption spectra of the phytoene and phytofluene extract was determined using Hewlett Packard 8452A Diode Array Spectrophotometer.
As expected, the main absorbance peak for β-carotene was at 450 nm. β-Carotene was reduced due to the synthesis inhibition while phytoene and phytofluene increased.

[2] = Stability under visible light (filtered sunlight, aerobic); assay type: physicochemical
Description: Stability of phytoene and phytofluene under visible light was measured under sunlight (full sun summer day in Rehovot, Israel, at noon) filtered through “hot mirror” (Andover Corporation, Salem, N.H., transmittance 400-650 nm) filter. Samples were dissolved in ethanol, exposed to light for 30-150 min and then extracted in hexane after basic hydrolysis (as in extraction method above). Phytoene, phytofluene and beta-carotene amounts were measured spectrophotometrically, and percentage lefts were calculated as in section 5 above.
Stability of phytoene and phytofluene was compared to that of beta-carotene stability (as explained in materials and methods) under visible light. The absorbance of the preparation is determined in 220-600 nm wavelength and the amount of each of the above carotenoids in each sample is calculated to determine the percent of the carotenoids measured after irradation of the extract compared to measurements prior to irradiant (see example 2 above).

[3] = Stability of phytoene and phytofluene at various incubation temperatures in oils and solvents; assay type: physicochemical; details: 4° C., 23° C., 30° C. and 60° C., hexane or oils, four months
Description: Stability of the carotenoids in the various temperatures was determined by long-term incubation of phytoene and phytofluene in several types of oils and solvents at 4° C., 23° C., 30° C. and 60° C. The amount of phytoene and phytofluene left was determined spectrophotometrically. The percent of phytoene and phytofluene left was calculated as follows: […]
The stability of phytoene and phytofluene under different temperature conditions (4° C., 23° C., 30° C. and 60° C.) in hexane or in other various commercially used oils was also measured.
The measurements were carried out over a period of four months.

[4] = Stability of phytoene and phytofluene under UV irradiation (aerobic); assay type: physicochemical
Description: 6. Stability of Phytoene and Phytofluene Under Aerobic Conditions in UV Lights and Various Incubation Temperatures
Stability of the carotenoids in the various temperatures was determined by long-term incubation of phytoene and phytofluene in several types of oils and solvents at 4° C., 23° C., 30° C. and 60° C. The amount of phytoene and phytofluene left was determined spectrophotometrically. The percent of phytoene and phytofluene left was calculated as follows:
[formula] Stability under UV lights (254 nm, 365 nm, 254+365 nm), for 30 mins. at 300/310 μw/cm^2 was determined. 7. Stability of Phytoene and Phytofluene Under Aerobic Conditions in Visible Light
The stability of the phytoene and phytofluene extracts obtained as explained in Example 1 above was determined by spectrophotometric analysis. Phytoene and phytofluene were dissolved in hexane or oil. The absorbance of the preparation is determined in 220-600 nm and the amount of each of the above carotenoids in each sample is calculated to determine the percent of the carotenoids measured after irradiation of the extract divided by the amount of the same carotenoid which was measured in the extract before exposing it to irradiation (see Materials and Methods 5 above). The stability of the phytoene and phytofluene was measured by the exposure of the extract both to UVA light (365 nm) and UVB light (254 nm) irradiation as well as to a combination of UVA and UVB irradiation.

[5] = test system: DNA repair synthesis activity; assay: Genotoxic effect: induction of DNA repair synthesis activity (ratio R); assay type: biochemical; details: R≦2 no toxic effect
Description: The genotoxicity is measured as the induction of DNA repair synthesis activity and is expressed by the ratio (R): while R≦2 indicate no toxic effect

[6] = 254 nm + 365 nm, 30 minutes exposure, in hexane
[7] = 254 nm + 365 nm, 30 minutes exposure, in oil
[8] = 254 nm, 30 minutes exposure, in hexane
[9] = 254 nm, 30 minutes exposure, in oil
[10] = 365 nm, 30 minutes exposure, in hexane
[11] = 365 nm, 30 minutes exposure, in oil
[12] = Darkness, 30 minutes, in hexane

Row | SMILES | main absorbance peak [1] | % left ([2]; time of exposure 0 min) | % left ([2]; time of exposure 30 min) | % left ([2]; time of exposure 90 min) | % left ([2]; time of exposure 120 min) | % left ([2]; time of exposure 150 min) | Stability under different temperature conditions [3] | PH and PF (% left) [4, 6] | PH and PF (% left) [4, 7] | PH and PF (% left) [4, 8] | PH and PF (% left) [4, 9] | PH and PF (% left) [4, 10] | PH and PF (% left) [4, 11] | PH and PF (% left) [4, 12] | PH and PF (% left) ([4]; Darkness, 30 minutes, in oil) | Genotoxicity (Ratio) ([5]; concentration 2 mM) | Genotoxicity (Ratio) ([5]; concentration 10 mM)
1 | CC(C)=CCC/C(C)=C/CC/C(C)=C/C=C/C(C)=C/C=C/C=C(\C)CC/C=C(\C)CC/C=C(\C)CCC=C(C)C [Phytofluene, 15Z, 7,8, 11, 12, 7′, 8′-hexahydro-γ,γ-carotene] | 348 nm | 100% | 66.13% | 50.42% | 41.33% | 33.06% | stable in the entire measured temperature range | 99.0% | 98% | 92.6% | 90% | 101.5% | 88% | 100% | 100% |  | 
2 | CC(C)=CCC/C(C)=C/CC/C(C)=C/CC/C(C)=C/C=C/C=C(\C)CC/C=C(\C)CC/C=C(\C)CCC=C(C)C [Phytoene, 7,8, 11, 12, 7′, 8′, 11′, 12′-octahydro-γ,γ-carotene] | 286 nm | 100% | 54.46% | 20.33% | 15.70% | 13.64% | stable in the entire measured temperature range | 92.4% | 101% | 92.2% | 100% | 98.7% | 100% | 100% | 100% |  | 
3 | CC1=C(/C=C/C(C)=C/C=C/C(C)=C/C=C/C=C(C)/C=C/C=C(C)/C=C/C2=C(C)CCCC2(C)C)C(C)(C)CCC1 [Beta-carotene, reference compound] | 450 nm | 100% | 25.00% | 11.36% | 9.47% | 5.68% |  |  |  |  |  |  |  |  |  |  | 
4 | COS(C)(=O)=O [MMS] |  |  |  |  |  |  |  |  |  |  |  |  |  |  |  | 2.44 | 6.26
